Laboratory results reported in ChEMBL document CHEMBL3885881, “DrugMatrix”.

Species: Rattus norvegicus
Assay: DrugMatrix - Regimen: Daily Repeat
Assay type: toxicity, organism-based, Sprague-Dawley
Set-up: regimen Daily Repeat, gender Male, age 6-8 weeks
Conditions: in vivo, po, route oral GAVAGE, vehicle .5 % CMC; for ABSOLUTE BASOPHIL / ABSOLUTE EOSINOPHIL / ABSOLUTE LYMPHOCYTE / ABSOLUTE MONOCYTE / ABSOLUTE SEGMENTED NEUTROPHIL / BASOPHIL / EOSINOPHIL / ERYTHROCYTE COUNT / HEMATOCRIT / HEMOGLOBIN / LEUKOCYTE COUNT / LYMPHOCYTE / MEAN CORPUSCULAR HEMOGLOBIN / MEAN CORPUSCULAR HEMOGLOBIN CONCENTRATION / MEAN CORPUSCULAR VOLUME / MONOCYTE / NEUTROPHIL / NUCLEATED RED BLOOD CELLS / PLATELET COUNT: tissue Blood; for ALANINE AMINOTRANSFERASE / ALBUMIN / ALKALINE PHOSPHATASE / ASPARTATE AMINOTRANSFERASE / BLOOD UREA NITROGEN / CARBON DIOXIDE / CHLORIDE / CHOLESTEROL / CREATINE PHOSPHOKINASE / CREATININE / GLUCOSE / LACTATE DEHYDROGENASE / LIPASE / PHOSPHORUS / POTASSIUM / SODIUM / TOTAL BILIRUBIN / TOTAL PROTEIN / URIC ACID: tissue Plasma
[1] = 12 mg/kg, 72 h, dose level Low, time 3 day
[2] = 12 mg/kg, 120 h, dose level Low, time 5 day
[3] = 1200 mg/kg, 72 h, dose level High, time 3 day
[4] = 1200 mg/kg, 120 h, dose level High, time 5 day

CC(=O)OCC(COC(C)=O)OC(C)=O [TRIACETIN]
ABSOLUTE BASOPHIL [1]: 0 CELLS/uL | ABSOLUTE EOSINOPHIL [1]: 0 CELLS/uL | ABSOLUTE LYMPHOCYTE [1]: 13591 CELLS/uL | ABSOLUTE MONOCYTE [1]: 0 CELLS/uL | ABSOLUTE SEGMENTED NEUTROPHIL [1]: 1342.33 CELLS/uL | BASOPHIL [1]: 0% | EOSINOPHIL [1]: 0% | ERYTHROCYTE COUNT [1]: 5.57 x10E6/uL | HEMATOCRIT [1]: 35.43% | HEMOGLOBIN [1]: 13.97 G/DL | LEUKOCYTE COUNT [1]: 14.93 x10E3/uL | LYMPHOCYTE [1]: 91.33% | MEAN CORPUSCULAR HEMOGLOBIN [1]: 25.13 pg | MEAN CORPUSCULAR HEMOGLOBIN CONCENTRATION [1]: 39.43 G/DL | MEAN CORPUSCULAR VOLUME [1]: 63.77 fL | MONOCYTE [1]: 0% | NEUTROPHIL [1]: 8.67% | NUCLEATED RED BLOOD CELLS [1]: 0 /100WBC | PLATELET COUNT [1]: 1332 x10E3/uL | ALANINE AMINOTRANSFERASE [1]: 52 u/L | ALBUMIN [1]: 4.5 G/DL | ALKALINE PHOSPHATASE [1]: 453.33 u/L | ASPARTATE AMINOTRANSFERASE [1]: 96.33 u/L | BLOOD UREA NITROGEN [1]: 14.33 mg/dL | CARBON DIOXIDE [1]: 21.67 mmol/L | CHLORIDE [1]: 105 MEQ/L | CHOLESTEROL [1]: 71.67 mg/dL | CREATINE PHOSPHOKINASE [1]: 251 u/L | CREATININE [1]: 0.21 mg/dL | GLUCOSE [1]: 185 mg/dL | LACTATE DEHYDROGENASE [1]: 165.33 u/L | LIPASE [1]: 9.33 u/L | PHOSPHORUS [1]: 13.93 mg/dL | POTASSIUM [1]: 6.64 MEQ/L | SODIUM [1]: 149.57 MEQ/L | TOTAL BILIRUBIN [1]: 0.17 mg/dL | TOTAL PROTEIN [1]: 6.2 G/DL | URIC ACID [1]: 2.07 mg/dL | ABSOLUTE BASOPHIL [2]: 0 CELLS/uL | ABSOLUTE EOSINOPHIL [2]: 0 CELLS/uL | ABSOLUTE LYMPHOCYTE [2]: 15649 CELLS/uL | ABSOLUTE MONOCYTE [2]: 168.33 CELLS/uL | ABSOLUTE SEGMENTED NEUTROPHIL [2]: 1016 CELLS/uL | BASOPHIL [2]: 0% | EOSINOPHIL [2]: 0% | ERYTHROCYTE COUNT [2]: 5.29 x10E6/uL | HEMATOCRIT [2]: 33.97% | HEMOGLOBIN [2]: 13.27 G/DL | LEUKOCYTE COUNT [2]: 16.83 x10E3/uL | LYMPHOCYTE [2]: 93% | MEAN CORPUSCULAR HEMOGLOBIN [2]: 25.03 pg | MEAN CORPUSCULAR HEMOGLOBIN CONCENTRATION [2]: 39.07 G/DL | MEAN CORPUSCULAR VOLUME [2]: 64.17 fL | MONOCYTE [2]: 1% | NEUTROPHIL [2]: 6% | NUCLEATED RED BLOOD CELLS [2]: 0 /100WBC | PLATELET COUNT [2]: 1422 x10E3/uL | ALANINE AMINOTRANSFERASE [2]: 45.67 u/L | ALBUMIN [2]: 4.27 G/DL | ALKALINE PHOSPHATASE [2]: 402 u/L | ASPARTATE AMINOTRANSFERASE [2]: 80.33 u/L | BLOOD UREA NITROGEN [2]: 15 mg/dL | CARBON DIOXIDE [2]: 24.33 mmol/L | CHLORIDE [2]: 103.67 MEQ/L | CHOLESTEROL [2]: 58 mg/dL | CREATINE PHOSPHOKINASE [2]: 234 u/L | CREATININE [2]: 0.12 mg/dL | GLUCOSE [2]: 156 mg/dL | LACTATE DEHYDROGENASE [2]: 145 u/L | LIPASE [2]: 8.33 u/L | PHOSPHORUS [2]: 14.27 mg/dL | POTASSIUM [2]: 7.19 MEQ/L | SODIUM [2]: 146.97 MEQ/L | TOTAL BILIRUBIN [2]: 0.17 mg/dL | TOTAL PROTEIN [2]: 5.73 G/DL | URIC ACID [2]: 1.77 mg/dL | ABSOLUTE BASOPHIL [3]: 0 CELLS/uL | ABSOLUTE EOSINOPHIL [3]: 0 CELLS/uL | ABSOLUTE LYMPHOCYTE [3]: 15023 CELLS/uL | ABSOLUTE MONOCYTE [3]: 340 CELLS/uL | ABSOLUTE SEGMENTED NEUTROPHIL [3]: 1637 CELLS/uL | BASOPHIL [3]: 0% | EOSINOPHIL [3]: 0% | ERYTHROCYTE COUNT [3]: 5.45 x10E6/uL | HEMATOCRIT [3]: 35.37% | HEMOGLOBIN [3]: 13.63 G/DL | LEUKOCYTE COUNT [3]: 17 x10E3/uL | LYMPHOCYTE [3]: 88% | MEAN CORPUSCULAR HEMOGLOBIN [3]: 25 pg | MEAN CORPUSCULAR HEMOGLOBIN CONCENTRATION [3]: 38.57 G/DL | MEAN CORPUSCULAR VOLUME [3]: 64.9 fL | MONOCYTE [3]: 2% | NEUTROPHIL [3]: 10% | NUCLEATED RED BLOOD CELLS [3]: 0 /100WBC | PLATELET COUNT [3]: 1322 x10E3/uL | ALANINE AMINOTRANSFERASE [3]: 49.33 u/L | ALBUMIN [3]: 4.13 G/DL | ALKALINE PHOSPHATASE [3]: 331 u/L | ASPARTATE AMINOTRANSFERASE [3]: 79.33 u/L | BLOOD UREA NITROGEN [3]: 14 mg/dL | CARBON DIOXIDE [3]: 19 mmol/L | CHLORIDE [3]: 102 MEQ/L | CHOLESTEROL [3]: 69.67 mg/dL | CREATINE PHOSPHOKINASE [3]: 229 u/L | CREATININE [3]: 0.18 mg/dL | GLUCOSE [3]: 149.33 mg/dL | LACTATE DEHYDROGENASE [3]: 172.67 u/L | LIPASE [3]: 10 u/L | PHOSPHORUS [3]: 14.13 mg/dL | POTASSIUM [3]: 7.15 MEQ/L | SODIUM [3]: 145.03 MEQ/L | TOTAL BILIRUBIN [3]: 0.17 mg/dL | TOTAL PROTEIN [3]: 5.83 G/DL | URIC ACID [3]: 1.73 mg/dL | ABSOLUTE BASOPHIL [4]: 0 CELLS/uL | ABSOLUTE EOSINOPHIL [4]: 0 CELLS/uL | ABSOLUTE LYMPHOCYTE [4]: 12251.33 CELLS/uL | ABSOLUTE MONOCYTE [4]: 0 CELLS/uL | ABSOLUTE SEGMENTED NEUTROPHIL [4]: 1215.33 CELLS/uL | BASOPHIL [4]: 0% | EOSINOPHIL [4]: 0% | ERYTHROCYTE COUNT [4]: 5.48 x10E6/uL | HEMATOCRIT [4]: 34.33% | HEMOGLOBIN [4]: 13.57 G/DL | LEUKOCYTE COUNT [4]: 13.47 x10E3/uL | LYMPHOCYTE [4]: 91% | MEAN CORPUSCULAR HEMOGLOBIN [4]: 24.77 pg | MEAN CORPUSCULAR HEMOGLOBIN CONCENTRATION [4]: 39.6 G/DL | MEAN CORPUSCULAR VOLUME [4]: 62.6 fL | MONOCYTE [4]: 0% | NEUTROPHIL [4]: 9% | NUCLEATED RED BLOOD CELLS [4]: 0 /100WBC | PLATELET COUNT [4]: 1274.67 x10E3/uL | ALANINE AMINOTRANSFERASE [4]: 49.33 u/L | ALBUMIN [4]: 4.07 G/DL | ALKALINE PHOSPHATASE [4]: 315.33 u/L | ASPARTATE AMINOTRANSFERASE [4]: 87.67 u/L | BLOOD UREA NITROGEN [4]: 16.67 mg/dL | CARBON DIOXIDE [4]: 25 mmol/L | CHLORIDE [4]: 103 MEQ/L | CHOLESTEROL [4]: 71 mg/dL | CREATINE PHOSPHOKINASE [4]: 262.67 u/L | CREATININE [4]: 0.16 mg/dL | GLUCOSE [4]: 147.33 mg/dL | LACTATE DEHYDROGENASE [4]: 331 u/L | LIPASE [4]: 8.33 u/L | PHOSPHORUS [4]: 13.2 mg/dL | POTASSIUM [4]: 6.8 MEQ/L | SODIUM [4]: 145.37 MEQ/L | TOTAL BILIRUBIN [4]: 0.17 mg/dL | TOTAL PROTEIN [4]: 6 G/DL | URIC ACID [4]: 1.37 mg/dL
